Reference: PubChem BioAssay (NCI)
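Assay format: 96-well plates, 48-hour exposure. GI50: concentration for 50% inhibition of growth. The concentration for full growth arrest is given as TGI.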

How the values were obtained:
Test in all cases: growth of human tumour cells (NCI), 48 h
CAKI-1 renal = test system: CAKI-1 renal
M14 melanoma = test system: M14 melanoma
SW-620 colon = test system: SW-620 colon
RXF 393 renal = test system: RXF 393 renal
HCC-2998 colon = test system: HCC-2998 colon
PC-3 prostate = test system: PC-3 prostate
NCI-H522 lung = test system: NCI-H522 lung
DU-145 prostate = test system: DU-145 prostate
OVCAR-5 ovarian = test system: OVCAR-5 ovarian
ACHN renal = test system: ACHN renal
K-562 leukemia = test system: K-562 leukemia
UO-31 renal = test system: UO-31 renal
UACC-62 melanoma = test system: UACC-62 melanoma
SNB-75 CNS = test system: SNB-75 CNS
OVCAR-4 ovarian = test system: OVCAR-4 ovarian
SN12C renal = test system: SN12C renal
HS 578T breast = test system: HS 578T breast
SF-539 CNS = test system: SF-539 CNS
UACC-257 melanoma = test system: UACC-257 melanoma
HL-60(TB) leukemia = test system: HL-60(TB) leukemia
LOX IMVI melanoma = test system: LOX IMVI melanoma
U251 CNS = test system: U251 CNS
SK-MEL-2 melanoma = test system: SK-MEL-2 melanoma
SR leukemia = test system: SR leukemia
MDA-MB-435 = test system: MDA-MB-435
MOLT-4 leukemia = test system: MOLT-4 leukemia
SK-OV-3 ovarian = test system: SK-OV-3 ovarian
TK-10 renal = test system: TK-10 renal
RPMI-8226 leukemia = test system: RPMI-8226 leukemia
BT-549 breast = test system: BT-549 breast
HCT-15 colon = test system: HCT-15 colon
A498 renal = test system: A498 renal
A549 NSCLC = test system: A549 NSCLC
COLO 205 colon = test system: COLO 205 colon
NCI-H226 lung = test system: NCI-H226 lung
IGROV1 ovarian = test system: IGROV1 ovarian
HOP-92 NSCLC = test system: HOP-92 NSCLC
SK-MEL-28 melanoma = test system: SK-MEL-28 melanoma
NCI-H460 lung = test system: NCI-H460 lung
HOP-62 NSCLC = test system: HOP-62 NSCLC
786-0 renal = test system: 786-0 renal
MALME-3M melanoma = test system: MALME-3M melanoma
HT29 colon = test system: HT29 colon
HCT-116 colon = test system: HCT-116 colon
MDA-MB-468 breast = test system: MDA-MB-468 breast
KM12 colon = test system: KM12 colon
MCF7 breast = test system: MCF7 breast
OVCAR-8 ovarian = test system: OVCAR-8 ovarian
SF-268 CNS = test system: SF-268 CNS
SNB-19 CNS = test system: SNB-19 CNS
NCI/ADR-RES ovarian = test system: NCI/ADR-RES ovarian
SF-295 CNS = test system: SF-295 CNS
CCRF-CEM leukemia = test system: CCRF-CEM leukemia
OVCAR-3 ovarian = test system: OVCAR-3 ovarian
EKVX NSCLC = test system: EKVX NSCLC
NCI-H23 lung = test system: NCI-H23 lung
MDA-MB-231 breast = test system: MDA-MB-231 breast
SK-MEL-5 melanoma = test system: SK-MEL-5 melanoma
T-47D breast = test system: T-47D breast

CCCCNC(=S)Nc1ccc(OCc2nc3ccc(Cl)cc3[nH]2)cc1
GI50 (CAKI-1 renal): 4.42 µM | TGI (CAKI-1 renal): 18.3 µM | GI50 (M14 melanoma): 11.3 µM | TGI (M14 melanoma): 26.8 µM | GI50 (SW-620 colon): 11.9 µM | TGI (SW-620 colon): 30.7 µM | GI50 (RXF 393 renal): 3.82 µM | TGI (RXF 393 renal): 16.2 µM | GI50 (HCC-2998 colon): 4.14 µM | TGI (HCC-2998 colon): 17.1 µM | GI50 (PC-3 prostate): 3.08 µM | TGI (PC-3 prostate): 14.5 µM | GI50 (NCI-H522 lung): 3.07 µM | TGI (NCI-H522 lung): 14.8 µM | GI50 (DU-145 prostate): 12.9 µM | TGI (DU-145 prostate): 26 µM | GI50 (OVCAR-5 ovarian): 13 µM | TGI (OVCAR-5 ovarian): 25.6 µM | GI50 (ACHN renal): 7.74 µM | TGI (ACHN renal): 20.4 µM | GI50 (K-562 leukemia): 3.41 µM | TGI (K-562 leukemia): > 100 µM | GI50 (UO-31 renal): 3.46 µM | TGI (UO-31 renal): 16.2 µM | GI50 (UACC-62 melanoma): 9.83 µM | TGI (UACC-62 melanoma): 21.7 µM | GI50 (SNB-75 CNS): 3.48 µM | TGI (SNB-75 CNS): 18.1 µM | GI50 (OVCAR-4 ovarian): 7.67 µM | TGI (OVCAR-4 ovarian): 21.5 µM | GI50 (SN12C renal): 10.5 µM | TGI (SN12C renal): 22.9 µM | GI50 (HS 578T breast): 10.7 µM | TGI (HS 578T breast): 38.6 µM | GI50 (SF-539 CNS): 11.5 µM | TGI (SF-539 CNS): 23.6 µM | GI50 (UACC-257 melanoma): 11.5 µM | TGI (UACC-257 melanoma): 24.1 µM | GI50 (HL-60(TB) leukemia): 1.8 µM | TGI (HL-60(TB) leukemia): 9.66 µM | GI50 (LOX IMVI melanoma): 3.41 µM | TGI (LOX IMVI melanoma): 16.2 µM | GI50 (U251 CNS): 13.1 µM | TGI (U251 CNS): 26.4 µM | GI50 (SK-MEL-2 melanoma): 13.1 µM | TGI (SK-MEL-2 melanoma): 26.3 µM | GI50 (SR leukemia): 2.91 µM | TGI (SR leukemia): 17.4 µM | GI50 (MDA-MB-435): 10.1 µM | TGI (MDA-MB-435): 22.2 µM | GI50 (MOLT-4 leukemia): 3.23 µM | TGI (MOLT-4 leukemia): 13.3 µM | GI50 (SK-OV-3 ovarian): 14.8 µM | TGI (SK-OV-3 ovarian): 28.6 µM | GI50 (TK-10 renal): 13.1 µM | TGI (TK-10 renal): 26.2 µM | GI50 (RPMI-8226 leukemia): 3.83 µM | TGI (RPMI-8226 leukemia): 30.3 µM | GI50 (BT-549 breast): 9.98 µM | TGI (BT-549 breast): 22.4 µM | GI50 (HCT-15 colon): 4.59 µM | TGI (HCT-15 colon): 17.9 µM | GI50 (A498 renal): 12.1 µM | TGI (A498 renal): 24.9 µM | GI50 (A549 NSCLC): 12.2 µM | TGI (A549 NSCLC): 26.7 µM | GI50 (COLO 205 colon): 17 µM | TGI (COLO 205 colon): 38.1 µM | GI50 (NCI-H226 lung): 9.57 µM | TGI (NCI-H226 lung): 26.4 µM | GI50 (IGROV1 ovarian): 5.3 µM | TGI (IGROV1 ovarian): 18.5 µM | GI50 (HOP-92 NSCLC): 2.04 µM | TGI (HOP-92 NSCLC): 6.43 µM | GI50 (SK-MEL-28 melanoma): 14.3 µM | TGI (SK-MEL-28 melanoma): 27.5 µM | GI50 (NCI-H460 lung): 10.2 µM | TGI (NCI-H460 lung): 27.8 µM | GI50 (HOP-62 NSCLC): 13.9 µM | TGI (HOP-62 NSCLC): 27.3 µM | GI50 (786-0 renal): 2.67 µM | TGI (786-0 renal): 10.1 µM | GI50 (MALME-3M melanoma): 11.6 µM | TGI (MALME-3M melanoma): 23.9 µM | GI50 (HT29 colon): 10.7 µM | TGI (HT29 colon): 24.6 µM | GI50 (HCT-116 colon): 4.54 µM | TGI (HCT-116 colon): 19.7 µM | GI50 (MDA-MB-468 breast): 2.45 µM | TGI (MDA-MB-468 breast): 12.4 µM | GI50 (KM12 colon): 14 µM | TGI (KM12 colon): 28.9 µM | GI50 (MCF7 breast): 3.55 µM | TGI (MCF7 breast): 18.8 µM | GI50 (OVCAR-8 ovarian): 12.4 µM | TGI (OVCAR-8 ovarian): 25.9 µM | GI50 (SF-268 CNS): 12.1 µM | TGI (SF-268 CNS): 27.9 µM | GI50 (SNB-19 CNS): 12.8 µM | TGI (SNB-19 CNS): 25.4 µM | GI50 (NCI/ADR-RES ovarian): 5.73 µM | TGI (NCI/ADR-RES ovarian): 23.4 µM | GI50 (SF-295 CNS): 6.92 µM | TGI (SF-295 CNS): 20.6 µM | GI50 (CCRF-CEM leukemia): 3.16 µM | TGI (CCRF-CEM leukemia): 12.4 µM | GI50 (OVCAR-3 ovarian): 4.65 µM | TGI (OVCAR-3 ovarian): 19 µM | GI50 (EKVX NSCLC): 7.13 µM | TGI (EKVX NSCLC): 20.2 µM | GI50 (NCI-H23 lung): 10.5 µM | TGI (NCI-H23 lung): 23.5 µM | GI50 (MDA-MB-231 breast): 9.9 µM | TGI (MDA-MB-231 breast): 22.1 µM | GI50 (SK-MEL-5 melanoma): 11.9 µM | TGI (SK-MEL-5 melanoma): 24.5 µM | GI50 (T-47D breast): 6.06 µM | TGI (T-47D breast): 20.5 µM
